Source: paper PMC3716717, “The molecular basis for recognition of bacterial ligands at equine TLR2, TLR1 and TLR6” (Veterinary Research, 2013)
Peptide text beside a SMILES is read from it. * marks the point of attachment. X1 = CCCCCCCCCCCCCCCC(=O)OCC(C*)OC(=O)CCCCCCCCCCCCCCC; Palmitoyl = CCCCCCCCCCCCCCCC(=O)*

What was measured:
Type in all cases: cell-based
[1] = target: T1, human TLR2 (Homo sapiens, UniProt O60603); test: NF-κB reporter assay in SW620 cells transfected with human TLR2 only (+CD14); parameters: FLAG (from vector pFLAG-CMV); expressed in transfected cells; host or cells: SW620 (human); details: 20 ng/mL ligand
T1 sequence (O60603 21-784): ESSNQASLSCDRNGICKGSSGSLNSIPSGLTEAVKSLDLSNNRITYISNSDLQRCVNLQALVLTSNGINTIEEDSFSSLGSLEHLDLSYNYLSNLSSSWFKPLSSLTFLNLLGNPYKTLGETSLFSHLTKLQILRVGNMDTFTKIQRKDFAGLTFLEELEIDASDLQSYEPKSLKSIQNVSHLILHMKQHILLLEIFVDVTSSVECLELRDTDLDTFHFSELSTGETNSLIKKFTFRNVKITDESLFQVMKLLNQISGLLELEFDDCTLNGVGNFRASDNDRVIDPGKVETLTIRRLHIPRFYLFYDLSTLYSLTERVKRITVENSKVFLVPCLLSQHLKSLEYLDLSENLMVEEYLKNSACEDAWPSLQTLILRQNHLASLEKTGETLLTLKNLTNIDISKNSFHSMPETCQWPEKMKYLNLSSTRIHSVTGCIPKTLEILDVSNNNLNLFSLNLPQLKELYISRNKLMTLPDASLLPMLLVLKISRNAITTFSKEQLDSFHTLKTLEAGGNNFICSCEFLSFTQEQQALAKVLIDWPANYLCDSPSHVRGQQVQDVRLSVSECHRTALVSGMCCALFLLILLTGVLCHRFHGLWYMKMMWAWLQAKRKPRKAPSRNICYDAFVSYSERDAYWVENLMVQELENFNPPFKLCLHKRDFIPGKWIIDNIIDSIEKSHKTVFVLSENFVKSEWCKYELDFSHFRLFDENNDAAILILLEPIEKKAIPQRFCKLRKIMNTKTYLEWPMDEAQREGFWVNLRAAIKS
Procedure: (§1) SW620 cells (a gift from Richard Tapping, USA) were utilised for TLR2/1 and TLR2/6 transient transfection experiments, as, unlike HEK293 cells, they are 1) deficient in significant expression of all three receptors, and 2) poorly responsive to Pam2CSK4 and Pam3CSK4 without exogenously added TLRs (Additional file 1). […] SW620 cells were seeded at 3.75 × 10^4 cells per well of a 48 well plate and transiently transfected 24 hours later using Fugene 6 (Promega) at a ratio of 1 μg DNA: 4 μL Fugene 6. For transfection, expression vectors containing cDNA encoding human (in pFLAG-CMV) or equine (in pcDNA3) TLR2, -1 and -6, and CD14 (in pcDNA3), were mixed as appropriate. TLR cDNA-containing vectors were used at 2.5 ng/well; CD14 cDNA-containing vectors were used at 1.25 ng/well. TLR constructs were replaced with empty vector (pcDNA3), as appropriate, to balance total added DNA amounts. […] Cells were stimulated for six hours, lysed using diluted passive lysis buffer (PLB; Promega), and NF-κB activation measured by the dual luciferase reporter assay (Promega).
(§2) Supplementary file 1297-9716-44-50-S1.pdf: Additional file 1 Expression of TLRs and responses to synthetic ligands of SW620 and HEK293 cells. […] (A) After 25 PCR cycles, TLR4 was detected in SW620, and TLR1 was detected in HEK293. […]

[2] = target: T2, human TLR2/1 (Homo sapiens, UniProt O60603+Q15399); test: NF-κB dual luciferase reporter assay in SW620 cells transfected with human TLR2+TLR1+CD14; details: human TLR2+TLR1+CD14, 6 h stimulation, normalised curves
T2 construct: FLAG (from vector pFLAG-CMV); expressed in transfected cells; host or cells: SW620 (human)
T2 sequence (O60603 21-784): as above
T2 sequence (Q15399 25-786): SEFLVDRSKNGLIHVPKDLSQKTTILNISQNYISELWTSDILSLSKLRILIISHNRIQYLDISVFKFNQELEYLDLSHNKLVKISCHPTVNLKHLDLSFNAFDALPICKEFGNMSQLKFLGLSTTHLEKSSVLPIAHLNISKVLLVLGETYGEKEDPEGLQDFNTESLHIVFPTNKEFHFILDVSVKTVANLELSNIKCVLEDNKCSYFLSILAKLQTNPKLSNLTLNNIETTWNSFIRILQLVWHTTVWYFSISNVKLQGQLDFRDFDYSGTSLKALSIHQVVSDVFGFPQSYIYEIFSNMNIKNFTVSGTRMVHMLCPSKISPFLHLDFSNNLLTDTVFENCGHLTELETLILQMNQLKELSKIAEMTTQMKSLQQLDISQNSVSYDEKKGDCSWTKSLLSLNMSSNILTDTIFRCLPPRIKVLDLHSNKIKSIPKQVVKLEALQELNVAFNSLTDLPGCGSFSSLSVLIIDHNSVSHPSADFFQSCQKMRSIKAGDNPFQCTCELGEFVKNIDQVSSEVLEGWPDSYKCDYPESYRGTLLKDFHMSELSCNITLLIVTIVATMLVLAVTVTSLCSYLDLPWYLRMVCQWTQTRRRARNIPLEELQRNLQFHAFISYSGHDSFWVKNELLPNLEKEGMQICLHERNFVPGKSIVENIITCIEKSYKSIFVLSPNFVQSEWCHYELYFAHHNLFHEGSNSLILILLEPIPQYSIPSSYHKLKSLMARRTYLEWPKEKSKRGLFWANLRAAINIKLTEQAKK
Procedure: as §1, with “ng/well.” for “ng/well. TLR constructs were replaced with empty vector (pcDNA3), as appropriate, to balance total added DNA amounts.”, “(Promega). […]” for “(Promega).”
(§3) SW620 cells were transiently transfected with reporter constructs and one of four receptor combinations: human TLR2+TLR1+CD14, human TLR2+TLR6+CD14, equine TLR2+TLR1+CD14 or equine TLR2+TLR6+CD14, and stimulated with increasing doses of ligand. EC50 and maximum stimulation values were determined at each heterodimer as measures of ligand potency and efficacy respectively.

[3] = target: T3, human TLR2/6 (Homo sapiens, UniProt O60603+Q9Y2C9); test: NF-κB dual luciferase reporter assay in SW620 cells transfected with human TLR2+TLR6+CD14
T3 construct: FLAG (from vector pFLAG-CMV); expressed in transfected cells; host or cells: SW620 (human)
T3 sequence (O60603 21-784): as the sequence (O60603 21-784) above
T3 sequence (Q9Y2C9 32-796): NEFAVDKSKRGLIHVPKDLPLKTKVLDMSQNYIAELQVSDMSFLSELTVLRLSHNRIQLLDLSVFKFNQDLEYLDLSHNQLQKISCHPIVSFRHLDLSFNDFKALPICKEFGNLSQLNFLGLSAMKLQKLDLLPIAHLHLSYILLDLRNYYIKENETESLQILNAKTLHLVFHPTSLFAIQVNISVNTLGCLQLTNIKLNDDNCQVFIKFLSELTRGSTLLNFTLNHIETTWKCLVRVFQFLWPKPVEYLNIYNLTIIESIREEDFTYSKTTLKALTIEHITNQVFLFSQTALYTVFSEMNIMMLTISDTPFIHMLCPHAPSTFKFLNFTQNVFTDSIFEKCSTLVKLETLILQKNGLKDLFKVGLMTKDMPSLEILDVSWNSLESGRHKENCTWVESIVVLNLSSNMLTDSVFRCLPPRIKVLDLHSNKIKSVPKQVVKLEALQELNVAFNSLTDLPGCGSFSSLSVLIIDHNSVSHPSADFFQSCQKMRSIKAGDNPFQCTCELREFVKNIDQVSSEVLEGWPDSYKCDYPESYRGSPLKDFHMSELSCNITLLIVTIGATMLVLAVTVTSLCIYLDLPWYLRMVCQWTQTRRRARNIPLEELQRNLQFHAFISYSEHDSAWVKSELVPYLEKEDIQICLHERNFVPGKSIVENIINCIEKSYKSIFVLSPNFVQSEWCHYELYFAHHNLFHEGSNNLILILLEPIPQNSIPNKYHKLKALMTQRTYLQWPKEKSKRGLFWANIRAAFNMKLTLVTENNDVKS
Procedure: as §1, with “ng/well.” for “ng/well. TLR constructs were replaced with empty vector (pcDNA3), as appropriate, to balance total added DNA amounts.”, “(Promega). […]” for “(Promega).”
as §3

[4] = target: T1, human TLR2; test: NF-κB reporter assay in HEK293 cells transfected with human TLR2 only (+CD14); details: 20 ng/mL ligand, human TLR2 + human CD14, endogenous TLR1/6
Procedure: HEK293 cells were seeded at a density of 3 × 10^4 cells per well of a 96 well plate and transiently transfected 48 h later using JetPEI (Polyplus). For transfection, expression vectors containing cDNA encoding human TLR2, -1 and -6, and CD14, were mixed as appropriate. TLR cDNA-containing and CD14 cDNA-containing vectors were used at 1 ng/well. TLR constructs were replaced as appropriate with empty vector (pcDNA3) to balance the total added DNA amounts. pNF-κB-luc (10 ng/well) and ph-RG-TK (5 ng/well) were added to receptor mixtures, together with 10× TE and 150 mM NaCl to give a total volume of 50 μL per 10 wells. Following mixing of DNA, and per 10 wells, 2 μL JetPEI was added to 48 μL 150 mM NaCl. JetPEI/NaCl was added to the DNA mixtures at a 1:1 ratio and incubated for 30 min at room temperature. Following incubation, transfection mixtures were diluted to 1 mL per 10 wells in complete HEK medium. Old medium was removed from plated cells and replaced with the transfection/complete medium mixtures. […] Cells were stimulated for six hours, lysed using diluted PLB, and NF-κB activation measured by the dual luciferase reporter assay (Promega).
as §2

[5] = test system: equine TLR2/6; test: NF-κB dual luciferase reporter assay in SW620 cells transfected with equine TLR2+TLR6+CD14
Procedure: as §1, with “ng/well.” for “ng/well. TLR constructs were replaced with empty vector (pcDNA3), as appropriate, to balance total added DNA amounts.”, “(Promega). […]” for “(Promega).”
as §3

[6] = test system: equine TLR2/1; test: NF-κB dual luciferase reporter assay in SW620 cells transfected with equine TLR2+TLR1+CD14; details: for EC50: SW620 cells, equine TLR2+TLR1+CD14, 6 h stimulation, NF-κB luciferase, normalised curves
Procedure: as §1, with “amounts. Reporter constructs pNF-κB-luc (Clontech; 25 ng/well) and ph-RG-TK (Promega; 12.5 ng/well), encoding firefly luciferase under an NF-κB promoter and constitutively expressed Renilla luciferase respectively, were then added to all receptor mixtures, together with 10× Tris-EDTA (TE). Following mixing of DNA, and per 4 wells, 0.7 μL Fugene 6 was diluted to 10 μL in serum- and antibiotic-free RPMI and incubated for 5 min. DNA mixtures were then added to the Fugene 6/RPMI mixtures and incubated for 30 min at room temperature. Following incubation, transfection mixtures were diluted to 1 mL per 4 wells in complete SW620 medium.” for “amounts.”, “(Promega). […]” for “(Promega).”
as §3

Row | Structure (SMILES) | NF-κB response of SW620 with exogenous TLR2 only [1] | EC50 [2] | EC50 ([3]; human TLR2+TLR6+CD14, 6 h stimulation, NF-κB luciferase, normalised curves) | NF-κB response of HEK293 with exogenous TLR2 only [4] | EC50 ([5]; equine TLR2+TLR6+CD14, 6 h stimulation, NF-κB luciferase, normalised curves) | EC50 [6] | potency at equine TLR2/1 relative to human TLR2/1 ([6]; more potent at equine TLR2/1 than at human TLR2/1) | stimulation of human TLR2/6 ([3]; data not shown) | stimulation of equine TLR2/6 ([5]; data not shown)
1 | CCCCCCCCCCCCCCCC(=O)OCC(CSC[C@H](N)C(=O)N[C@@H](CO)C(=O)N[C@@H](CCCCN)C(=O)N[C@@H](CCCCN)C(=O)N[C@@H](CCCCN)C(=O)N[C@@H](CCCCN)C(=O)O)OC(=O)CCCCCCCCCCCCCCC (stereo partly shown) [Pam2CSK4] (H-C(X1)SKKKK-OH; N-terminus and C-terminus assumed) | respond weakly | 3.31 nM | 0.0118 nM | respond to both ligands | 0.010 ng/mL | 0.43 ng/mL | 10 fold |  | 
2 | CCCCCCCCCCCCCCCC(=O)N[C@@H](CSCC(COC(=O)CCCCCCCCCCCCCCC)OC(=O)CCCCCCCCCCCCCCC)C(=O)N[C@@H](CO)C(=O)N[C@@H](CCCCN)C(=O)N[C@@H](CCCCN)C(=O)N[C@@H](CCCCN)C(=O)N[C@@H](CCCCN)C(=O)O (stereo partly shown) [Pam3CSK4] (Palmitoyl-C(X1)SKKKK-OH; C-terminus assumed) | not | 0.311 nM |  | respond to both ligands |  | 18.73 ng/mL |  | failed to stimulate | failed to stimulate
